Data reported in patent publication US20240349720A1, “ANTIMICROBIAL COMPOSITIONS COMPRISING ALKYL ETHER CARBOXYLIC ACIDS AND METHODS OF USE THEREOF” (ECOLAB USA INC., priority 2023, published 2024).

Tests used:
[1] = test system: S. aureus; experiment: Food contact sanitizing efficacy (AOAC Method 960.09); type: cell-based; details: pH adjusted to 2.1 with phosphoric acid, 30 seconds exposure
Experimental: (§1) Additional testing to confirm food contact sanitizing efficacy (AOAC Method 960.09) comparing three AEC surfactants was conducted where the surfactants were diluted in 500 ppm synthetic hard water and pH adjusted to 2.1 with phosphoric acid. The evaluated AEC surfactants are further described above in Table 2.

[2] = test system: E. coli; experiment: as above; type: cell-based; details: pH adjusted to 2.1 with phosphoric acid, 30 seconds exposure
Experimental: as §1

[3] = 500 ppm surfactant in 500 ppm synthetic hard water
[4] = 750 ppm surfactant in 500 ppm synthetic hard water
[5] = 1000 ppm surfactant in 500 ppm synthetic hard water

| Substance | Log reduction S. aureus [1, 3] | Log reduction S. aureus [1, 4] | Log reduction S. aureus [1, 5] | Log reduction E. coli [2, 3] | Log reduction E. coli [2, 4] | Log reduction E. coli [2, 5] |
| --- | --- | --- | --- | --- | --- | --- |
| Capryleth-4 Carboxylic acid | >7.34 log | >7.34 log | >7.34 log | >7.59 log | >7.59 log | >7.59 log |
| Capryleth-6 Carboxylic acid | >7.34 log | >7.34 log | >7.34 log | 1.98 log | 3.44 log | >7.59 log |
| Capryleth-9 Carboxylic acid | 5.31 log | >7.34 log | >7.34 log | <1.19 log | <1.19 log | <1.19 log |
